Reference: patent US9957214B2, “Multifunctional radical quenchers” (ARIZONA BOARD OF REGENTS ON BEHALF OF ARIZONA STATE …, priority 2012, dated 2018)
“Also recorded” adds a separate entry of the source.

Experiments:
CEM leukemia cells = assay: Suppression of ROS production (DCFH-DA flow cytometry) in DEM-treated CEM leukemia cells; format: cell-based; conditions: CEM leukemia cells pretreated with DEM, read-out: Scavenging activity (%), suppression of ROS production
Method: FIG. 1. Flow cytometric analysis of CEM leukemia lymphocytes (gray bars) and FRDA lymphocytes (black bars) stained with dichlorodihydrofluorescein diacetate (DCFH-DA) for 20 min, following pretreatment with the test compounds at 5 μM concentration for 16 h, and subsequent treatment with diethyl maleate (DEM) for 60 or 80 min to induce the production of ROS in CEM and FRDA lymphocytes, respectively. Data shown represent the mean±SEM of two different experiments run as duplicates.
Intracellular ROS production was measured in FRDA lymphocyte cells (GM15850, Coriell Cell Repositories, Camden, N.J.) using the oxidant sensitive fluorescent probe 2,7-dichlorodihydrofluorescein diacetate (DCFH-DA) (Molecular Probes) as described previously (Khdour et al. (2011) Pharm. Res. 28, 2896-2909). One mL of FRDA lymphocyte cells or leukemic CEM cells (5×10^5 cells) were plated in a 24-well plate, treated with the test compounds and incubated at 37° C. for 16 h in a humidified atmosphere containing 5% CO2 in air. Cells were treated with 5 mM diethyl maleate (DEM) for 80 min or 60 min respectively, collected by centrifugation at 300×g for 3 min and then washed with phosphate buffered saline (PBS) (Life Technologies). Cells were resuspended in PBS containing 20 mM glucose and incubated at 37° C. in the dark for […] with 10 μM DCFH-DA. Cells were collected by centrifugation at 300×g for 3 min and then washed with PBS. The samples were analyzed immediately by flow cytometry (C6 Accuri, BD Biosciences, San Jose, Calif.), using a 488 nm excitation laser and the FL1-H channel 530±15 nm emission filter. The generation of ROS, mainly peroxides, was detected as a result of the oxidation of DCFH. In each analysis, 10,000 events were recorded after cell debris was electronically gated out. Results obtained were verified by running duplicates and repeating experiments in three independent runs. Results were expressed as percentage of ROS scavenging activity.
The ability of the synthesized analogues to quench ROS and lipid peroxidation was evaluated in FRDA lymphocytes or leukemic CEM cells. These cells were placed under oxidative stress by depleting them of glutathione (GSH) using diethyl maleate (DEM). Depletion of glutathione by treatment FRDA lymphocytes or leukemic CEM cells with DEM has been used to induce oxidative stress in cellular systems by generation of ROS. Intracellular ROS production was measured using the oxidant sensitive fluorescent probe 2,7-dichlorodihydrofluorescein diacetate (DCFH-DA) (Molecular Probes).

FRDA lymphocytes = assay: Preservation of mitochondrial membrane potential (TMRM flow cytometry) in DEM-treated FRDA lymphocytes; format: cell-based
Method: FIG. 3. Effect of nitrogen-containing 1,4-benzoquinone derivatives on mitochondrial membrane potential of cultured FRDA cells. Representative flow cytometric two dimensional color density dot plot analyses of mitochondrial membrane potential Δψm in FRDA lymphocytes stained with TMRM and analyzed using the FL2-H channel as described in Experimental Section. The cells were washed twice in phosphate buffered saline, and suspended in phosphate buffered saline containing 20 mM glucose. The percentage of cells with intact Δψm is indicated in the top right quadrant of captions. In each analysis, 10,000 events were recorded. Data are expressed as means±SEM of three independent experiments run in duplicate.
Mitochondrial membrane potential was measured using two different fluorescent dyes, TMRM and JC-1. Δψm was determined as previously described by staining FRDA lymphocyte cells with TMRM (Molecular Probes, Eugene, Oreg.) and analyzing fluorescence emission by flow cytometry in detection channel 2 (FL2-H) (Khdour et al. (2011) Pharmaceut. Res. 28, 2896-2909). Briefly, FRDA lymphocytes were pre-treated with or without the test compounds for 16 h. The cells were treated with 5 mM DEM for 140 min, collected by centrifugation at 300×g for 3 min and then washed twice with phosphate buffered saline. The cells were resuspended in PBS containing […] and incubated at 37° C. in the dark for 15 min with 250 nM TMRM. Cells were collected by centrifugation at 300×g for 3 min and were then washed with phosphate buffered saline. The samples were analyzed immediately by flow cytometry using a 488 nm excitation laser and the FL2-H channel. The results obtained were verified in three independent experiments. […] In each analysis, 10,000 events were recorded. […] The following day, cells were treated with tested compounds and incubated for an additional 12 h before treatment with 1 mM BSO. Δψm was assessed after 24 h using JC-1 Mitochondrial Membrane Potential Detection Kit (Biotium, Inc) following the manufacturer instruction. Glass cover slips were rinsed with phosphate-buffered saline and mounted onto slides, and images were recorded and analyzed with a Zeiss AxioCam MRm and AxioVision 3.1 software (Carl Zeiss Goettingen, Germany) on a Zeiss Axiovert 200 M inverted microscope, equipped with a 40× oil immersion objective.
The ability of the test compounds to preserve mitochondrial membrane potential under conditions of oxidative stress was studied. […] Changes in mitochondrial membrane potential (Δψm) were measured using two different fluorescent dyes, tetramethylrhodamine methyl ester (TMRM) and 5,5′,6,6′-tetrachloro-1,1′,3,3′-tetraethylbenzimidazolocarbocyanine iodide (JC-1). […] The fluorescence signal of TMRM can be directly co-related to Δψm across the inner mitochondrial membrane. […]

[1] = target: bovine heart mitochondrial complex I (Bos taurus, UniProt P03887+P17694+P42026); assay: Complex I (NADH-Q1 oxidoreductase) inhibition in submitochondrial particles; format: biochemical; conditions: submitochondrial particles, 30° C.; for IC50: read-out: Complex I inhibition IC50; for Emax: read-out: Complex I inhibition Imax
Chain of bovine heart mitochondrial complex I (P25708 21-464): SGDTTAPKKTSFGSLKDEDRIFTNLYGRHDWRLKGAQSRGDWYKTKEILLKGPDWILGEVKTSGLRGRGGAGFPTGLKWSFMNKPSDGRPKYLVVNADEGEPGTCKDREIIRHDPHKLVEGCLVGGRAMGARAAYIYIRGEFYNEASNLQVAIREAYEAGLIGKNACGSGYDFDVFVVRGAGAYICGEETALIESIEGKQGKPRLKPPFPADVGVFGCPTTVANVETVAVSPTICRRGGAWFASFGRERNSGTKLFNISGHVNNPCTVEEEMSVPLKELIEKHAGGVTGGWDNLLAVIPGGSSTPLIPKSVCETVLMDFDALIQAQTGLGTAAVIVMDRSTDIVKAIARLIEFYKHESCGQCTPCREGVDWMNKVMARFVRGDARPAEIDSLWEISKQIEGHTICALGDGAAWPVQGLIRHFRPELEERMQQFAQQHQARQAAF
Chain of bovine heart mitochondrial complex I (P42026 38-216): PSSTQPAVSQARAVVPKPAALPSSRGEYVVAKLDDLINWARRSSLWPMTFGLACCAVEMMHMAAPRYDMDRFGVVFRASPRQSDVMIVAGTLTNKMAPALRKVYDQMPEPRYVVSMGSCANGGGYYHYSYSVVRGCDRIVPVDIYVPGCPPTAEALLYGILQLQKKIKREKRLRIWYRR
Chain of bovine heart mitochondrial complex I (P17694 34-463): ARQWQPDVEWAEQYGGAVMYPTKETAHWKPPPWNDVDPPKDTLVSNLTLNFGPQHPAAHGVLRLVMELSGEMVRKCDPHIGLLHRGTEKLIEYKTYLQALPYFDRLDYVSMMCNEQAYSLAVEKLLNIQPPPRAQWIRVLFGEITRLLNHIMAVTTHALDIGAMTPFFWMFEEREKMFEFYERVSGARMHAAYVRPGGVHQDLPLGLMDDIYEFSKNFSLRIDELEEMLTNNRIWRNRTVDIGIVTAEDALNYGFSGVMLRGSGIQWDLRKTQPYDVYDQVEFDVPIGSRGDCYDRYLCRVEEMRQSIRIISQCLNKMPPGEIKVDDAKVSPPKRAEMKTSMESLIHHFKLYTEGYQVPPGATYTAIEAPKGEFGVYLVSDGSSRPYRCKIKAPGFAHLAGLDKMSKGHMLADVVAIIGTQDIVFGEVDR
Chain of bovine heart mitochondrial complex I (P15690 24-727, further chain): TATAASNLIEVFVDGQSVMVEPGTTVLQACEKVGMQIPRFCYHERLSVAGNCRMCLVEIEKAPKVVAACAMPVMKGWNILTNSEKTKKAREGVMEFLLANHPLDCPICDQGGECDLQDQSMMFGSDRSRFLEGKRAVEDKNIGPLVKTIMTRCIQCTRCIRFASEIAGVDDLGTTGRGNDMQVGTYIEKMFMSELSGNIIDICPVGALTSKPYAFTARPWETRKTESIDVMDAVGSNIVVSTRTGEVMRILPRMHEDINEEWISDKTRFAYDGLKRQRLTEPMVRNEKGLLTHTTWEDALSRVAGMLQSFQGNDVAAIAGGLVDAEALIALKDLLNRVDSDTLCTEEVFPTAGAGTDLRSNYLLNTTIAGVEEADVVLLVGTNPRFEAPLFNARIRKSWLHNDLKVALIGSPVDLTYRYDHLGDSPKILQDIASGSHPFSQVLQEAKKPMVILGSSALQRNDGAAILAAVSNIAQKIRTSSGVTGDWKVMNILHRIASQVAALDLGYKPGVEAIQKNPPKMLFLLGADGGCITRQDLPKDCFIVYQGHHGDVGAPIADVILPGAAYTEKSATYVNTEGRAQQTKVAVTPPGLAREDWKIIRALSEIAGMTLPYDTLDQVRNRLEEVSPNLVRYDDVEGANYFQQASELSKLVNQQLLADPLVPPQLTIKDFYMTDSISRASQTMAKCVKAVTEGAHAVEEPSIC
Chain of bovine heart mitochondrial complex I (P03887 whole entry): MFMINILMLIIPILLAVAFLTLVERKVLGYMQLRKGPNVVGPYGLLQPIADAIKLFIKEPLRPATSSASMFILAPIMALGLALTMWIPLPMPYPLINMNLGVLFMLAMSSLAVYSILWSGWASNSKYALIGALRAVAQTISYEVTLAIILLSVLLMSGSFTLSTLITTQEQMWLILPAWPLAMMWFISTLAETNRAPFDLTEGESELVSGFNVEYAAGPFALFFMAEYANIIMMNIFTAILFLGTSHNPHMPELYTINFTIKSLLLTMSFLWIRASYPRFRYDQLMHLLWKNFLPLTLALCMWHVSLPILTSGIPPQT
Chain of bovine heart mitochondrial complex I (P42028 37-212, further chain): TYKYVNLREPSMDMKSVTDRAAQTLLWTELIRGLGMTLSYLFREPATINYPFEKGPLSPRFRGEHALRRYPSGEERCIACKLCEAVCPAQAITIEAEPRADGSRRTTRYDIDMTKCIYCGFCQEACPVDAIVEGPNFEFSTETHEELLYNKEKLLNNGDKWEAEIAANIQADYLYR

`CCCCCCCCCCCCCC1=C(OC)C(=O)C(C)=C(NCCCC(=O)OCCCC)C1=O` [Compound 46, Butyl 4-(4-methoxy-2-methyl-3,6-dioxo-5-tridecylcyclohexa-1,4-dienylamino)butanoate] was tested, and the inhibition at 5 µM (CEM leukemia cells) was 50 ± 5%.

`CCCCCCCCCCCCCC1=C(NCCCC(=O)OCCCCCC)C(=O)C(C)=C(NCCCC(=O)OCCCCCC)C1=O` [Compound 50, 2,5-bis(hexyl 4-aminobutanoate)-3-methyl-6-tridecylcyclohexa-2,5-diene-1,4-dione] gave an inhibition at 5 µM (CEM leukemia cells) of 14 ± 1%.

`CCCCCCCCCCCCCC1=C(OC)C(=O)C(C)=C(NCCCC(=O)OCCCCCC)C1=O` [Compound 49, Hexyl 4-(4-methoxy-2-methyl-3,6-dioxo-5-tridecylcyclohexa-1,4-dienylamino)butanoate] gave an inhibition at 5 µM (CEM leukemia cells) of 16 ± 8%.

In the case of `CCCCCCCCCCCCCC1=C(OC)C(=O)C=C(NCCCC(=O)OCCCCCC)C1=O` [Compound 18, Hexyl 4-(4-methoxy-3,6-dioxo-5-tridecylcyclohexa-1,4-dienylamino)butanoate], the “Preservation of mitochondrial membrane potential Δψm (in words)” value (FRDA lymphocytes) is reported as “prevented the loss of Δψm”, the IC50 [1] is reported as 513 ± 38 µM and the Emax [1] is reported as > 85%.

`COC1=C2CCCCCCCCCCCCCCCNC(=CC1=O)C2=O` [Compound 40] was tested, and the “Preservation of mitochondrial membrane potential Δψm (in words)” value (FRDA lymphocytes) was “prevented the loss of Δψm; also recorded: able to prevent oxidative-stress induced collapse of Δψm”.

With `CCCCCCCCCCCCCC1=C(OC)C(=O)C=C(NCCCC(=O)OC(C)(C)C)C1=O` [Compound 7, tert-butyl 4-(4-methoxy-3,6-dioxo-5-tridecylcyclohexa-1,4-dienylamino)butanoate] the “Preservation of mitochondrial membrane potential Δψm (in words)” value (FRDA lymphocytes) was “preserved mitochondrial membrane potential; also recorded: able to prevent oxidative-stress induced collapse of Δψm”, the IC50 [1] was 540 ± 17 µM and the Emax [1] was > 85%.

`CCCCCCCCCCCCCC1=C(OC)C(=O)C(C)=C(NCCCC(=O)OC(C)(C)C)C1=O` [Compound 43, tert-butyl 4-(4-methoxy-2-methyl-3,6-dioxo-5-tridecylcyclohexa-1,4-dienylamino)butanoate] showed an inhibition at 5 µM (CEM leukemia cells) of 35 ± 6%.
